≈ marks a conversion by molar mass, not a printed value.

For this series the following is noted: buffer; pH 7.4; 200.0 µM.
In the case of `COc1ccccc1OCc1nc2ccccc2n1C`, the solubility (kinetic) (in general, solubility judged after dilution from a stock solution rather than from solid) was 37.5 µg/mL (≈ 140 µM). In the case of `COC(=O)C1Cc2ccccc2CN1S(=O)(=O)c1ccc(C)cc1` (stereo unspecified), the solubility (kinetic) was 19.6 µg/mL (≈ 56.7 µM).

`N#CCOC(=O)C1c2ccccc2Oc2ccccc21` returned a solubility (kinetic) of 35.2 µg/mL (≈ 133 µM). Take `O=C(CSc1nc(O)cc(=O)[nH]1)N1CCOCC1`: the solubility (kinetic) was more than 40.7 µg/mL. `N#Cc1nc(COc2ccc(F)cc2)oc1N1CCCCC1` gave a kinetic solubility of 11.7 µg/mL (≈ 38.8 µM).

Consider `Cc1ccc(CNc2cc(C(=O)O)ccc2C)s1`, for which the solubility (kinetic) is more than 39.2 µg/mL. With `COc1ccccc1CNC(=O)COC(=O)c1cc(=O)c2ccccc2o1`, the kinetic solubility was more than 55.1 µg/mL. For `O=[N+]([O-])c1ccc(N2CCCC2)nc1` the value was 26.8 µg/mL (≈ 139 µM); for `CCOc1cc(/C=C2\C(=O)ON=C2c2ccccc2)ccc1OC`, 46.1 µg/mL (≈ 143 µM). In turn, `CN(C)C(=S)NC1CCS(=O)(=O)C1` (stereo unspecified) had a kinetic solubility of more than 33.3 µg/mL. As for `Cc1ccc(Nc2ccncc2S(N)(=O)=O)cc1`, the kinetic solubility was 33 µg/mL (≈ 125 µM). For `CSCC(=O)NCC1(N(C)Cc2ccccc2)Cc2ccccc2C1` the value was more than 53.2 µg/mL; for `CCN1CCc2c(OCC(=O)N3CCc4ccccc43)cccc2C1=O`, more than 52.6 µg/mL.

`COC(=O)c1c(NC(C)=O)sc(C(=O)N2CCOCC2)c1C` displayed a solubility (kinetic) of more than 49 µg/mL.

On to `COC(=O)C1=C(NC(=O)c2ccccc2[N+](=O)[O-])CCS1`, for which the kinetic solubility was 8.4 µg/mL (≈ 27.2 µM).

As to `O=C(NC(=S)Nc1ccccc1OC(F)F)c1ccc2c(c1)OCO2`, the solubility (kinetic) was 4.4 µg/mL (≈ 12 µM).

Compound `COc1ccc(CN2CCOCCOCCOCCOCCOCC2)cc1` registered a kinetic solubility of more than 57.5 µg/mL. Take `COc1cccc(NC(=O)c2ccccc2Oc2ccccc2)c1`: the solubility (kinetic) was 6.4 µg/mL (≈ 20 µM). Under `O=C(Nc1nccs1)C1CC(=O)N(c2ccc(F)cc2)C1` (stereo unspecified) stands 9.7 µg/mL (≈ 31.8 µM); under `N#Cc1c(C(F)(F)F)cc(=O)n2c1[nH]c1ccccc12`, more than 41.6 µg/mL; under `COCCNC(=O)CN1C(=O)NC2(CCOc3ccccc32)C1=O` (stereo unspecified), 42.9 µg/mL (≈ 129 µM).

With `OCCCNCc1ccc(N(c2ccccc2)c2ccccc2)cc1`, the solubility (kinetic) is 39 µg/mL (≈ 117 µM). In turn, `COc1ccc(NC2CCCN(C(=O)c3c(C)noc3C)C2)cc1` (stereo unspecified) came in with a solubility (kinetic) of more than 49.4 µg/mL. In turn, `CN(C)c1ccc(C(=S)N2CCCC2)cc1Br` showed a kinetic solubility of 44 µg/mL (≈ 140 µM). In turn, `NCCc1nnc(SCC(=O)Nc2cccc(Cl)c2)o1` had a solubility (kinetic) of more than 46.9 µg/mL. Consider `O=S(=O)(c1ccccc1)N(Cc1cccc(F)c1)c1ccccc1`, for which the kinetic solubility is less than 0.7 µg/mL. For `COc1ccc(C(=O)NCC(=O)OCc2ccccc2F)cc1`, the solubility (kinetic) turned out to be 47.6 µg/mL (≈ 150 µM). Under `O=C(Nc1cccc(F)c1)c1c(O)c2ccccc2[nH]c1=O` stands less than 0.3 µg/mL; under `O=C1/C(=C/c2ccncc2)N=C2CCCCCN12`, 33.9 µg/mL (≈ 140 µM). Consider `c1ccc(OCc2noc(CN3CC[C@@H]4CCCC[C@H]4C3)n2)cc1`, for which the kinetic solubility amounted to 6 µg/mL (≈ 18.3 µM). Regarding `O=C(CSc1ccc(C(F)(F)F)cn1)Nc1ccccc1`, the solubility (kinetic) came out at 16.8 µg/mL (≈ 53.8 µM). `COc1ccccc1Nc1nc(N)nc(CCl)n1` had a kinetic solubility of 35.4 µg/mL (≈ 133 µM). In turn, `COc1cc([N+](=O)[O-])cc([N+](=O)[O-])c1NC(=O)N1CCOCC1` came in with a kinetic solubility of more than 48.9 µg/mL.

`COc1cc(OC)cc(C(=O)NC2CC3CCC(C2)N3C)c1` (stereo unspecified) yielded a kinetic solubility of 38.4 µg/mL (≈ 126 µM). The compound `COCc1cc(C)nc(SCc2ccccc2)c1C#N` displayed a kinetic solubility of 3.4 µg/mL (≈ 12 µM). `COC(=O)c1c(C)noc1-c1ccc(Cl)cc1` had a kinetic solubility of 1.6 µg/mL (≈ 6.36 µM). In the case of `CC(=O)NC(CC(=O)O)c1ccc([N+](=O)[O-])cc1` (stereo unspecified), the kinetic solubility was more than 37.8 µg/mL. As to `CCOC(=O)c1csc(NC(=O)c2ccc(OCC)cc2)n1`, the kinetic solubility was determined as 0.8 µg/mL (≈ 2.5 µM). Compound `CC(OC(=O)c1ccc2noc(-c3ccccc3)c2c1)C(N)=O` (stereo unspecified) came in with a kinetic solubility of 46.3 µg/mL (≈ 149 µM).

Consider `CC(C)(C)c1ccc(C(=O)/C(C#N)=C/c2cccs2)cc1`, for which the kinetic solubility came out at 4.1 µg/mL (≈ 13.9 µM). This solubility kinetic is about 11-fold lower than that of the compound before. For the compound `Cc1cccc(CC(=O)Nc2ccon2)c1`, the solubility (kinetic) was more than 32.4 µg/mL. As to `CCC1(C)NC(=O)N(/N=C/c2ccc(C)s2)C1=O` (stereo unspecified), the kinetic solubility was more than 39.8 µg/mL.

Take `COC(=O)c1cccnc1NC(=S)NC(C)C`: the solubility (kinetic) is 7.1 µg/mL (≈ 28 µM).

Turning to `N#Cc1ccccc1NC(=O)COC(=O)c1cccs1`, the solubility (kinetic) worked out at 4 µg/mL (≈ 14 µM). Under `Nc1ccc(N2CCOCC2)cc1C(F)(F)F` stands 33.9 µg/mL (≈ 138 µM); under `O=C(Nc1ccccc1N1CCCCC1)c1ccc(Cl)cc1`, 1.5 µg/mL (≈ 4.76 µM). In the case of `CCOc1nc(-c2ccccc2)ncc1Oc1ccccc1`, the solubility (kinetic) is less than 0.3 µg/mL. For `Cc1cccc(NS(=O)(=O)c2ccc(C(=O)N3CCC3)cc2)c1C` the value was 50.8 µg/mL (≈ 147 µM).

For `C=CCNc1nc2ccccc2c(=O)[nH]1`, the solubility (kinetic) was found to be 29.1 µg/mL (≈ 145 µM). The compound `O=C(Nc1ccc(O)cc1)c1ccccc1OCc1ccccc1` showed a solubility (kinetic) of less than 0.7 µg/mL. Regarding `CC(C)(C)NC(=O)CN1C(=O)/C(=C/c2ccccc2)SC1=S`, the solubility (kinetic) stood at 1.1 µg/mL (≈ 3.29 µM). As for `Cc1nsc(Nc2ccccc2)c1C#N`, the kinetic solubility came to 7.7 µg/mL (≈ 35.8 µM). `CN(C(=O)CSc1ncccn1)C1CCS(=O)(=O)C1` (stereo unspecified) registered a kinetic solubility of 42.2 µg/mL (≈ 140 µM). This solubility kinetic lies about 5.5-fold higher than the previous one. `COc1ccc2oc(C(=O)NC(C)c3ccccn3)c(C)c2c1` (stereo unspecified) registered a solubility (kinetic) of more than 46.6 µg/mL. Under `O=C(NCCCNC(=O)c1ccccn1)c1ccc(Cl)cc1` stands 39 µg/mL (≈ 123 µM). Under `COc1ccccc1C(=O)NCCC(=O)NC1=NCCS1` stands more than 46.1 µg/mL; under `O=[N+]([O-])c1ccc(Cc2ccccn2)cc1`, more than 32.1 µg/mL; under `N#C/C(=C/Nc1ccccc1C(=O)O)C(N)=O`, more than 34.7 µg/mL. Turning to `CC(C)(C)C(=O)Nc1nnc(SCC(=O)NC2CC2)s1`, the kinetic solubility was more than 47.2 µg/mL. For `CC(NC(=O)CN1C(=O)NC2(CCCC2)C1=O)c1ccc(Cl)cc1Cl` (stereo unspecified) the value was 51.8 µg/mL (≈ 135 µM); for `Cc1ccc(C)c(C(=O)CCC(=O)NCc2ccc(Cl)cc2)c1`, 10.9 µg/mL (≈ 33 µM). Take `CCN(CC)CC(=O)Nc1ccc(C)cc1C(=O)c1ccccc1`: the kinetic solubility was more than 48.7 µg/mL.

For `CC(OC(=O)c1ccco1)C(=O)NCc1ccc2c(c1)OCO2` (stereo unspecified), the kinetic solubility was more than 47.6 µg/mL. Compound `Cc1ccc(OCC(=O)NCCNC(=O)c2ccncc2)cc1C` came in with a kinetic solubility of more than 49.1 µg/mL. The compound `Cc1nc(CC(=O)Nc2nccs2)cs1` registered a kinetic solubility of more than 35.9 µg/mL. With `COc1ccc(CNc2ncnc3c2[nH]c2ccccc23)cc1`, the solubility (kinetic) is 0.2 µg/mL (≈ 0.657 µM). In turn, `O=C(COC(=O)COc1cccc(F)c1)NCC1CCCCC1` yielded a kinetic solubility of more than 48.5 µg/mL. Compound `COCCNC(=O)CN1C(=O)NC2(CCCCCC2)C1=O` yielded a solubility (kinetic) of more than 44.6 µg/mL.

In turn, `O=C(Cc1ccccc1)c1c[nH]c(C(=O)C(Cl)(Cl)Cl)c1` had a solubility (kinetic) of 28.1 µg/mL (≈ 85 µM). For the compound `CC(C)c1nc2cc(C(=O)NC(C)c3cnn(C)c3)ccc2o1` (stereo unspecified), the solubility (kinetic) was more than 46.9 µg/mL. On to `COc1ccc(NC(=O)CC2SC(N3CCCC3)=NC2=O)cc1Cl` (stereo unspecified), for which the kinetic solubility came out at 6.8 µg/mL (≈ 18.5 µM). Take `Cc1ccccc1NC(=O)CN1C(=O)CSc2ccccc21`: the solubility (kinetic) came to 3.6 µg/mL (≈ 11.5 µM). Under `COC(=O)c1ccc(S(=O)(=O)N2CCOCC2)o1` stands more than 41.3 µg/mL; under `CCC12CN3CCN(CC(C3)/C1=N\NC(=O)c1ccc(Cl)cc1)C2`, more than 52 µg/mL. As to `CC(NC(N)=O)C(=O)NCC(=O)OCc1ccccc1` (stereo unspecified), the kinetic solubility is more than 41.9 µg/mL. In the case of `CCOc1ccc(C(=O)NCc2ccc3c(c2)OCO3)cc1`, the solubility (kinetic) turned out to be 11.3 µg/mL (≈ 37.8 µM). The compound `O=C(Nc1ccc(N2CCOCC2)cc1)c1cccc(S(=O)(=O)N2CCOCC2)c1` had a solubility (kinetic) of 15.1 µg/mL (≈ 35 µM).

With `CN(C)CCNc1cnn(-c2ccccc2)c(=O)c1Cl`, the solubility (kinetic) is more than 43.9 µg/mL. The compound `O=S(=O)(c1ccc(Br)cc1Cl)N1CCCN(c2ccc(C(F)(F)F)cn2)CC1` displayed a solubility (kinetic) of 3 µg/mL (≈ 6.02 µM). For `O=C1CNC(=O)/C1=C/c1ccc(Br)cc1` the value was 26.9 µg/mL (≈ 101 µM). For `COc1ccc(NC(=O)CSc2nnc(N)s2)c([N+](=O)[O-])c1` the value was more than 51.2 µg/mL. `O=C1C(Cl)=C(N2CCCCCC2)C(=O)N1c1ccc(Cl)cc1` came in with a solubility (kinetic) of 26.2 µg/mL (≈ 77.2 µM).

Take `Cn1cc(-c2cccc(C(F)(F)F)c2)cc(C#N)c1=O`: the solubility (kinetic) turned out to be 7.6 µg/mL (≈ 27.3 µM).

The compound `CCOC(=O)c1sc(NC(=O)Cc2ccc(F)cc2)nc1C` showed a kinetic solubility of 3.8 µg/mL (≈ 11.8 µM). `CCN(CC)c1ccc(C=Nc2cccnc2Cl)c(O)c1`: the kinetic solubility came to 33.3 µg/mL (≈ 110 µM). In turn, `CCOc1ccc(C(=O)NCC(c2ccco2)N2CCOCC2)cc1` (stereo unspecified) showed a kinetic solubility of more than 51.7 µg/mL. Under `CC1CCN(Cc2nc(Cl)c3c4c(sc3n2)CCC4)CC1` stands 27.4 µg/mL (≈ 85.1 µM).

`CC(NC(=O)COC(=O)c1cc(S(=O)(=O)N2CCOCC2)ccc1F)c1ccccc1` (stereo unspecified) gave a kinetic solubility of more than 67.6 µg/mL. `O=C1CNC(=S)N1Cc1ccccc1Cl` returned a kinetic solubility of more than 36.1 µg/mL. Consider `CC(NC(=O)c1ccc(S(=O)(=O)C(F)F)cc1)c1ccccc1` (stereo unspecified), for which the kinetic solubility was more than 50.9 µg/mL.

Regarding `CN(C)c1cc(Nc2ccc(O)cc2)c([N+](=O)[O-])c2nonc12`, the kinetic solubility is 0.7 µg/mL (≈ 2.22 µM). Under `Cc1cccc(OCC(=O)O/N=C(\N)c2ccncc2)c1` stands more than 42.8 µg/mL. `CC(=O)Nc1ccc(NCc2cccs2)cc1` yielded a solubility (kinetic) of more than 36.9 µg/mL. For `C1N2CN3CN1CN(C2)C3`, the kinetic solubility is more than 21 µg/mL.

`O=C1CCC(C(=O)OCC(=O)c2ccccc2)N1` (stereo unspecified) yielded a solubility (kinetic) of more than 37.1 µg/mL.

`CC(NC(=O)COc1ccccc1)C(c1cccs1)N1CCCC1` (stereo unspecified): the kinetic solubility is more than 51.7 µg/mL. For `O=C(c1ccccc1Cl)N1CCC(n2cccc2)CC1` the value was 42.2 µg/mL (≈ 146 µM). Under `Cc1cc(Cl)ccc1OCCCC(=O)OCC(N)=O` stands 42.3 µg/mL (≈ 148 µM); under `O/N=C/Cc1[nH]c2ccccc2c1-c1ccccc1`, 34.8 µg/mL (≈ 139 µM); under `CC(C)OP(=O)(OC(C)C)C(O)c1ccc(N(C)C)cc1` (stereo unspecified), more than 47.3 µg/mL. `O=C(O)CN1C(=O)C(=O)N(Cc2c(F)cccc2Cl)C1=O` gave a solubility (kinetic) of 45.5 µg/mL (≈ 145 µM). For `COC(=O)c1ccc(S(=O)(=O)N2CCC(C(N)=O)CC2)n1C` the value was more than 49.4 µg/mL.

For `Cc1nc(CNS(=O)(=O)c2ccc(F)cc2)cs1`, the solubility (kinetic) was more than 43 µg/mL. In the case of `O=C1CCCc2ccccc2N1Cc1cccc(F)c1`, the solubility (kinetic) stood at 36.4 µg/mL (≈ 135 µM).

In the case of `COc1ccc(NC(=O)c2cccnc2SC)cc1OC`, the solubility (kinetic) was determined as 19.2 µg/mL (≈ 63.1 µM). Under `Cc1onc(-c2ccccc2)c1C(=O)N(C)CC(=O)Nc1ccc(F)c(F)c1F` stands more than 60.5 µg/mL.

Source of the values: PubChem BioAssay AID1996.
